From PubChem BioAssay (NCI)
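Protocol summary: plate cells (96-well), add compound at 5 concentrations, incubate 48 h, interpolate endpoints linearly. TGI denotes the concentration required for complete inhibition of growth.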

How the values were obtained:
Experiment in all cases: growth of human tumour cells (NCI), 48 h
[1] = tested on: OVCAR-8 ovarian
[2] = tested on: HCT-15 colon
[3] = tested on: A498 renal
[4] = tested on: SNB-75 CNS
[5] = tested on: ACHN renal
[6] = tested on: NCI-H23 lung
[7] = tested on: K-562 leukemia
[8] = tested on: HL-60(TB) leukemia
[9] = tested on: SK-MEL-2 melanoma
[10] = tested on: MALME-3M melanoma
[11] = tested on: SN12C renal
[12] = tested on: OVCAR-3 ovarian
[13] = tested on: UACC-62 melanoma
[14] = tested on: M14 melanoma
[15] = tested on: NCI-H226 lung
[16] = tested on: UO-31 renal
[17] = tested on: RXF 393 renal

| SMILES | TGI [1] [µM] | TGI [2] [µM] | TGI [3] [µM] | TGI [4] [µM] | TGI [5] [µM] | TGI [6] [µM] | TGI [7] [µM] | TGI [8] [µM] | TGI [9] [µM] | TGI [10] [µM] | TGI [11] [µM] | TGI [12] [µM] | TGI [13] [µM] | TGI [14] [µM] | TGI [15] [µM] | TGI [16] [µM] | TGI [17] [µM] |
| --- | --- | --- | --- | --- | --- | --- | --- | --- | --- | --- | --- | --- | --- | --- | --- | --- | --- |
| CC1(C)OC(C[C@]2(C#N)C[C@H](CCl)OC(C)(C)O2)C[C@@H](C[C@]2(C#N)C[C@H](CCl)OC(C)(C)O2)O1 (stereo not given in full) | > 100 | > 100 | > 100 | > 100 | > 100 | > 100 | > 100 | > 100 | > 100 | > 100 | > 100 | > 100 | > 100 | > 100 | > 100 |  |  |
| CCCCCCCCOC(CO)CO | > 100 | > 100 | > 100 |  | > 100 | > 100 | > 100 | > 100 |  | > 100 | > 100 | > 100 | > 100 | > 100 | > 100 | > 100 |  |
| O=C1CCCC/C1=C1\C(=O)Nc2cc(F)ccc21 | > 100 | > 100 | > 100 | > 100 | > 100 | > 100 | > 100 | > 100 | > 100 | > 100 | > 100 |  | > 100 | > 100 | > 100 | > 100 | > 100 |
| N#C/C(=C\c1ccc(O)c(O)c1)C(=O)NC1CCC(CC2CCC(NC(=O)/C(C#N)=C/c3ccc(O)c(O)c3)CC2)CC1 (stereo not given) | 10.4 | 32.7 | > 100 | 1.69 | 4.24 | 3.89 | 4.93 | 6.09 | 3.89 | 15 | 7.23 | 3.96 | 3.07 | 6.83 | 14.3 | 4.97 | 12.8 |
| CCOC(=O)c1cc2c(nc1N)-c1ncccc1CC2 | > 100 | > 100 | > 100 | > 100 | > 100 | > 100 | > 100 | > 100 | > 100 | > 100 | > 100 | > 100 | > 100 | > 100 | > 100 | > 100 | > 100 |
| COc1ccc2c3c(n(Cc4ccccc4)c(=O)c2c1)-c1cc(OC)c(OC)cc1C3C (stereo not given) | > 100 | > 100 | 97.8 | 45.4 | 43.9 | > 100 | > 100 | > 100 | 46 | 57.6 | > 100 | > 100 | 69.9 | > 100 | > 75.9 | > 100 | 48.8 |
| CCCc1c[nH]c(-c2ccc(-c3cc(CCC)c(C=O)[nH]3)s2)c1 | 26.5 | 29.6 | 20.5 | 34.8 | 33.5 | 42.4 | 49.8 | 49.8 | 28.5 | 30 | 30.2 | 30.8 | 31.2 | 24.5 | 33.3 |  | 36.1 |
| O=C(O)Cc1cccc2c1Oc1ccccc1S2 | > 100 | > 100 | > 100 | > 100 | > 100 | > 100 | > 100 | > 100 | > 100 | > 100 | > 100 | > 100 | > 100 | > 100 | > 100 | > 100 | > 100 |
| O=C(c1cc2ccccc2o1)N(Cc1ccccc1)c1ccccc1 | 66.2 | 41 | 89.1 | > 100 | > 100 | 71.2 | 40 | 40.6 | > 100 | 59.8 | 34.7 | 41.2 | 28.1 | 38.9 | 34.9 | 51.8 | 43 |
| CC1(C)CC(=O)C2=C(C1)S/C(=C1/SC3=C(S1)C(=O)CC(C)(C)C3)S2 | > 251 | > 251 | > 251 | > 251 | > 251 | > 251 | > 251 | > 251 | > 251 | > 251 | > 251 | > 251 | > 251 | > 251 |  | > 251 | > 251 |
| O=C(c1ccccc1)c1ccc(OCCOc2ccc(Nc3ccccc3)cc2)cc1 | > 100 | > 100 | 79 | 33.4 | 84.3 | > 100 | > 100 |  | > 100 | 71 | > 100 | > 100 | > 100 | > 100 | > 100 | > 100 | 67.3 |
| NNC(=S)N/N=C(/C(=O)Nc1cc(Cl)ccc1Cl)C1C(=O)Nc2ccccc2S1=O (stereo not given) | > 100 | > 100 | > 100 | > 100 | > 100 | > 100 | > 100 | > 100 | > 100 | > 100 | > 100 | > 100 | > 100 | > 100 | > 100 | > 100 | > 100 |
